Legend:
[1] = target: Melanocyte-stimulating hormone receptor (Homo sapiens, UniProt Q01726); assay: (§1) Transactivation Assay: In the presence of an activator (agonist), the melanocortin receptor will activate the cAMP pathway which, via the CRE-Luc vector, will result in the synthesis of luciferase. After the addition of a lysis buffer containing a luminescent substrate for luciferase, it will be possible to measure the luminescence proportional to the degree of activation or of inhibition of the receptor. The products are solubilized at 10 mM in DMSO. They are tested in the form of dose-response at a final DMSO concentration of 0.1%. The range comprising 10 points and one zero begins at 10 μM with 4-fold dilutions. For testing agonists, the products are tested alone. For determining the behaviour of antagonists, the products of interest are tested in the presence of 1 nM NDP-MSH (reference agonist). The cells are seeded at a rate of 5000 cells per well (384 well plate) in serum-free DMEM medium, and incubated overnight at 37° C., 5% CO2.The products and the reference ligand (NDP-MSH) are added the following day, and the plates are again incubated for 6 h at 37° C., 5% CO2. After the addition of lysis buffer containing luciferin, the plates are read on a Top-Count instrument. The results are standardized as % activity using the 100% (cells+NDP-MSH at 10 nM) and 0% (cells alone) controls. An EC50 is calculated for each product using the XLFit software. The results are given in nM. […]
Melanocortin receptor 4 = Melanocortin receptor 4 (Homo sapiens, UniProt P32245); assay: as §1
Sequence of Melanocortin receptor 4 (P32245 whole entry): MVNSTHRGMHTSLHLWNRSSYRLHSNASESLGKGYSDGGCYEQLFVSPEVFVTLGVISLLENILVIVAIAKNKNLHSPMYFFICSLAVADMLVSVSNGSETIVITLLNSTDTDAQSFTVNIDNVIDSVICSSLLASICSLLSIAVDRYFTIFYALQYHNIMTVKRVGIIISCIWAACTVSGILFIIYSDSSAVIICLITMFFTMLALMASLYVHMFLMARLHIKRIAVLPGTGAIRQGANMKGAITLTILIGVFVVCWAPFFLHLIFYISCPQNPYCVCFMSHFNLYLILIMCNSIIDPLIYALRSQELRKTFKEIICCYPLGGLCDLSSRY

Sequence of Melanocyte-stimulating hormone receptor (Q01726 whole entry): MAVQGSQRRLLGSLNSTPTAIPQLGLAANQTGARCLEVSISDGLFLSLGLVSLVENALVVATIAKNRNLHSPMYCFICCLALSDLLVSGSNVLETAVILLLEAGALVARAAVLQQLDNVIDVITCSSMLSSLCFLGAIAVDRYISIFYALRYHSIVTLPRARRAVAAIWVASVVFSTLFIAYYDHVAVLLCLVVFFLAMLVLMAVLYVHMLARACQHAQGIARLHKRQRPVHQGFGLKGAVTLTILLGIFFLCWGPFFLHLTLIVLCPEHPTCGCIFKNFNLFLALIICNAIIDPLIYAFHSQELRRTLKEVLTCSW

EC50 [1]: 0.06 µM
EC50 (Melanocortin receptor 4): 0.03 µM
SMILES: CCCCCC1(c2ccccc2OC)CN(C(=O)[C@@H](Cc2ccc(OC)cc2)NC(=O)CCc2c[nH]cn2)C1
